Where “and” joins values, the source holds several entries; their conditions need not be identical. Equal values may be shown once. Read-outs that look alike come from different tables or passages of the source.
Tests used:
FIH [1] = biological target: T1, FIH (Homo sapiens, UniProt Q9NWT6); experiment: SPE-MS FIH inhibition assay; type: biochemical; on IC50 FIH: 0.15 µM FIH
Protocol: FIH inhibition assays were performed as described, using cosubstrate/cofactor stock solutions (L-ascorbic acid, LAA: 50 mM in MQ-grade water; 2-oxoglutarate, 2OG: 10 mM in MQ-grade water; ammonium iron(II) sulfate hexahydrate, FAS, (NH4)2Fe(SO4)2·6H2O: 400 mM in 20 mM HCl diluted to 1 mM in MQ-grade water), which were freshly prepared from commercially-sourced solids (Sigma Aldrich).
Dimethyl sulfoxide (DMSO) solutions of the 2OG derivatives were dry dispensed across 384-well polypropylene assay plates (Greiner) in an approximately threefold and 11-point dilution series (100 μM top concentration; the final DMSO assay concentration was kept constant at 0.5%v/v) using an ECHO 550 acoustic dispenser (Labcyte). […] Each reaction was performed in technical duplicates in adjacent wells of the assay plates; additionally, assays were performed in two independent duplicates on different days using different inhibitor solutions.
The Enzyme Mixture (25 μL/well), containing 0.3 μM His6-FIH in buffer (50 mM Tris, 50 mM NaCl, pH 7.5), was dispensed across the inhibitor-containing 384-well assay plates with a multidrop dispenser (ThermoFischer Scientific) at 20 °C under an ambient atmosphere. The plates were subsequently centrifuged (1000 rpm, 15 s) and incubated for 15 min at 20 °C. The Substrate Mixture (25 μL/well), containing 10.0 μM HIF-1α788–822[37] substrate, 200 μM LAA, 20.0 μM 2OG, and 20.0 μM FAS in buffer (50 mM Tris, 50 mM NaCl, pH 7.5), was added using the multidrop dispenser. The plates were centrifuged (1000 rpm, 15 s) and after incubating for 15 min, the enzyme reaction was stopped by the addition of 10%v/v aqueous formic acid (5 μL/well). The plates were then centrifuged (1000 rpm, 30 s) and analyzed by MS.
(§1) MS-analyses were performed using a RapidFire RF 365 high-throughput sampling robot (Agilent) attached to an iFunnel Agilent 6550 accurate-mass quadrupole time-of-flight mass spectrometer operated in the positive ionization mode. Assay samples were aspirated under vacuum for 0.6 s and loaded onto a C4 SPE cartridge. After loading, the C4 SPE cartridge was washed with 0.1%v/v aqueous formic acid to remove non-volatile buffer salts (5.5 s, 1.5 mL/min). […] The mass spectrometer was operated using the MassHunter Workstation B.08.00 software (Agilent), the mass spectrometer parameters were: capillary voltage (4000 V), nozzle voltage (1000 V), fragmentor voltage (365 V), gas temperature (280 °C), gas flow (13 L/min), sheath gas temperature (350 °C), sheath gas flow (12 L/min). The m/z + 2 (for CA1–20) or +3 (for HIF-1α788–822) charge states of the peptide (substrate) and the hydroxylated peptide (product) were used to extract ion chromatogram data, peak areas were integrated using RapidFire Integrator 4.3.0 (Agilent). Data were exported into Microsoft Excel and used to calculate the % conversion of the hydroxylation reaction using the equation: % conversion = 100 × (integral product peptide)/(integral substrate peptide+integral product peptide). […] Z′-factors were calculated according to the cited literature using Microsoft Excel (Supplementary Fig. 26)[83].
SPE-MS FIH inhibition assays were performed as described in the Methods section.
Tris, 50 mM NaCl, pH 7.5, 20 °C). […]

FIH [2] = biological target: T1, FIH; experiment: SPE-MS FIH turnover (cosubstrate) assay in the absence of 2OG; type: biochemical; settings: 330 μM 2OG or 2OG derivative, no 2OG, t = 15 min
Protocol: The ability of 35 synthetic C3/C4-substituted 2OG derivatives, which were prepared via a reported procedure (Supplementary Fig. 1 and Supplementary Methods)[21], to sustain catalysis by purified recombinant FIH in the absence of 2OG was examined using an assay directly monitoring substrate depletion and product formation (i.e., a +16 Da mass shift) by solid-phase extraction (SPE) coupled to mass spectrometry (SPE-MS)[44],[45]. […] (i.e. CA1–20)[47], were used as FIH substrates to test for potential substrate-dependent differences in terms of cosubstrate analog selectivity.
as §1, with “Assay” for “MS-analyses were performed using a RapidFire RF 365 high-throughput sampling robot (Agilent) attached to an iFunnel Agilent 6550 accurate-mass quadrupole time-of-flight mass spectrometer operated in the positive ionization mode. Assay”, “The m/z + 2 (for CA1–20) or +3 (for HIF-1α788–822) charge states of the peptide (substrate) and the hydroxylated peptide (product) were used to extract ion chromatogram data, peak areas were integrated using RapidFire Integrator 4.3.0 (Agilent).” left out

[3] = source data of Table 3, single independent replicates, read-out: FIH IC50, independent replicate
[4] = source data of Table 3, single independent replicates

T1 sequence (Q9NWT6 whole entry): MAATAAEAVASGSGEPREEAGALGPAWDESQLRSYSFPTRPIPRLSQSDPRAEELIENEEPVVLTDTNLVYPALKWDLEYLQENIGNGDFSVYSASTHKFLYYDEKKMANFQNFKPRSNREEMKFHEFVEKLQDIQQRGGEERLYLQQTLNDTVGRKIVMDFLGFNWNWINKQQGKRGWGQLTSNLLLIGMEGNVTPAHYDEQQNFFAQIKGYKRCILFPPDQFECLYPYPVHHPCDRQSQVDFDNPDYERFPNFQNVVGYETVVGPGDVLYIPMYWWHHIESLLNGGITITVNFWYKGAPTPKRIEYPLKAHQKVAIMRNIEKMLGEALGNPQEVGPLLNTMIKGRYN

IC50 FIH (FIH [1]; […] FIH, 5.0 μM HIF-1α788-822, 10 μM 2OG, mean of two runs) | FIH activity, %-substrate conversion (FIH [2]; CA1–20 substrate) | FIH activity, %-substrate conversion (FIH [2]; HIF-1α788–822 substrate) | IC50 (FIH [1]; […] FIH, 5.0 μM HIF-1α788-822, 10 μM 2OG, mean of two runs, read-out: IC50 FIH) [µM] | IC50 (FIH [1]; [3]) | FIH IC50, independent replicate (FIH [1]; [4]) | SMILES
inactive | ~5% | ~2% | – | – | – | O=C(O)C(=O)C1CCC(C(=O)O)C1 (stereo not drawn) [compound 22, 3-(carboxycarbonyl)cyclopentane-1-carboxylic acid]
– | ~75% | ~10% | 19.3 | 27.8 µM and 13.3 µM and 16.6 µM | – | CCC(CC(=O)C(=O)O)C(=O)O (stereo not drawn) [compound 14, 4-ethyl-2OG]
– | ~80% | ~45% | – | – | not inhibiting | CC(CC(=O)C(=O)O)C(=O)O (stereo not drawn) [compound 12, 4-methyl-2OG]
– | > 95% | ~50% | – | – | – | O=C(O)CCC(=O)C(=O)O [2OG, 2-Oxoglutarate]
– | > 90% | ~55% | – | – | not inhibiting | CC(CC(=O)O)C(=O)C(=O)O (stereo not drawn) [compound 1, 3-methyl-2OG]
– | ^c<1% ^d<1% | ^c<1% ^d<1% | – | 0.864 µM and 0.923 µM | – | O=C(O)C(=O)CC(CCCc1ccccc1)C(=O)O (stereo not drawn) [compound 18, 4-(3-phenylpropyl)-2OG]

Reference: article PMC8580996, “2-Oxoglutarate derivatives can selectively enhance or inhibit the activity of human oxygenases” (Nature Communications, 2021)
